Test results reported in US4740233A, “Substituted 1,2,4-triazolo[1,5-a]-pyrimidine-2-sulfonamides and compositions and methods of controlling undesired vegetation and suppressing the nitrification of ammonium nitrogen in soil” (The Dow Chemical Company, priority 1986, dated 1988).

Experiments:
[1] = tested on: nitrification of ammonium nitrogen; test: Suppression of nitrification of ammonium nitrogen in soil; conditions: 27° C.
How it was run: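 Soil (20 g) moistened to its 1/3 bar tension value, mixed with test chemical and incubated sealed for two weeks at 27° C. Nitrate extracted with ammonium sulfate solution and measured by nitrate-specific ion electrode; value given as % NH4-N remaining.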

[2] = tested on: yellow foxtail; test: Preemergent control of plant species; type: in vivo, Setaria lutescens; conditions: Setaria, pre-emergence, 336 h; 0.25 lb/acre; read-out: percent preemergent control
How it was run: (§1)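 Preemergent application of aqueous emulsions at rates given in the table, uniformly over seeded greenhouse soil. Untreated (water) beds as comparison; rating after 2 weeks as reduction in growth.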

[3] = tested on: wild oats; test: Preemergent control of plant species; type: in vivo; conditions: Avena fatua, pre-emergence, 336 h; 0.25 lb/acre; read-out: percent preemergent control
How it was run: as §1

[4] = tested on: rice; test: Preemergent control of plant species; type: in vivo, Oryza sativa; conditions: Oryza sativa, pre-emergence, 336 h; 0.25 lb/acre; read-out: percent preemergent control
How it was run: as §1

[5] = tested on: cotton; test: Preemergent control of plant species; type: in vivo, Gossypium spp.; conditions: Gossypium hirsutum, pre-emergence, 336 h; 0.25 lb/acre; read-out: percent preemergent control
How it was run: as §1

[6] = tested on: annual sugar beet variety (SLC03); test: Plant growth regulator activity, postemergence; type: in vivo; conditions: for minimal effective concentration: Beta vulgaris, post-emergence, 672 h, 4 weeks after spraying, read-out: Bolting Inhibition (postemergence), concentration with observed effect; for observed effect (postemergence): 400 ppm
Source text: (§2) Using a regular biennial variety, even a bolting-susceptible variety would require a cold treatment of around 10-16 weeks plus a hormone treatement in conjunction with specific light intensities. Thus, for a screening organism, we selected one which would consistently produce bolting on a regular schedule. The screen is run with an annual sugar beet variety (SLC03) provided by Dr. Richard J. Hecker, Fort Collins, Colo. This variety is an inbred which bolts in the 6- to 8-leaf stage without any need for vernalization. This allows the screen to be run entirely in the greenhouse with all 110 chemical compounds tested on one tray. The sugarbeets are grown in 3×3 inch square pots in a greenhouse sandy loam potting mix. The sugarbeets are sprayed with test compounds when they are 2 to 3 weeks old (2 true leaves). The compounds are dissolved in acetone and diluted with water containing Tween 20 as a wetting agent. The concentration of acetone in the final spray is 20% and the concentration of Tween 20 is 0.05 percent. The plants are examined for the appearance of a bolt 4 weeks after spraying.

[7] = tested on: barnyardgrass; test: Preemergent control of plant species; type: in vivo, Echinochloa crusgalli; conditions: Echinochloa crus-galli, pre-emergence, 336 h; 0.25 lb/acre; read-out: percent preemergent control
How it was run: as §1

[8] = tested on: johnson grass; test: Preemergent control of plant species; type: in vivo, Sorghum halepense; conditions: Sorghum halepense, pre-emergence, 336 h; 0.25 lb/acre; read-out: percent preemergent control
How it was run: as §1

[9] = tested on: sorghum; test: Preemergent control of plant species; type: in vivo, Sorghum vulgare; conditions: Sorghum, pre-emergence, 336 h; 0.25 lb/acre; read-out: percent preemergent control
How it was run: as §1

[10] = tested on: rape; test: Preemergent control of plant species; type: in vivo, Brassica napus; conditions: Brassica napus, pre-emergence, 336 h; 0.25 lb/acre; read-out: percent preemergent control
How it was run: as §1

[11] = tested on: annual morning glory; test: Preemergent control of plant species; type: in vivo, Ipomoea spp.; conditions: Ipomoea, pre-emergence, 336 h; 0.25 lb/acre; read-out: percent preemergent control
How it was run: as §1

[12] = tested on: sugar beet; test: Preemergent control of plant species; type: in vivo, Beta saccharifera; conditions: Beta vulgaris, pre-emergence, 336 h; 0.25 lb/acre; read-out: percent preemergent control
How it was run: as §1

[13] = tested on: soybean; test: Preemergent control of plant species; type: in vivo, Glycine max.; conditions: Glycine max, pre-emergence, 336 h; 0.25 lb/acre; read-out: percent preemergent control
How it was run: as §1

[14] = tested on: wheat; test: Preemergent control of plant species; type: in vivo, Triticum aestivum; conditions: Triticum aestivum, pre-emergence, 336 h; 0.25 lb/acre; read-out: percent preemergent control
How it was run: as §1

[15] = tested on: velvetleaf; test: Preemergent control of plant species; type: in vivo, Abutilon theophrasti; conditions: Abutilon theophrasti, pre-emergence, 336 h; 0.25 lb/acre; read-out: percent preemergent control
How it was run: as §1

[16] = tested on: yellow nutsedge; test: Preemergent control of plant species; type: in vivo, Cyperus esculentus; conditions: Cyperus, pre-emergence, 336 h; 0.25 lb/acre; read-out: percent preemergent control
How it was run: as §1

[17] = tested on: corn; test: Preemergent control of plant species; type: in vivo, Zea mays; conditions: Zea mays, pre-emergence, 336 h; 0.25 lb/acre; read-out: percent preemergent control
How it was run: as §1

[18] = tested on: johnson grass; test: Postemergent control of plant species; type: in vivo, Sorghum halepense; conditions: Sorghum halepense, post-emergence, 336 h, read-out: percent postemergent control
How it was run: (§3)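 Each compound is dissolved in acetone, mixed with an equal volume of 0.1% surfactant water, and sprayed on plants grown to 2-4 leaves in nutrient soil. Treated and untreated beds sit under identical greenhouse temperature and light for roughly two weeks before growth reduction is rated.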

[19] = tested on: yellow foxtail; test: Postemergent control of plant species; type: in vivo, Setaria lutescens; conditions: Setaria, post-emergence, 336 h, read-out: percent postemergent control
How it was run: as §3

[20] = tested on: wheat; test: Postemergent control of plant species; type: in vivo, Triticum aestivum; conditions: Triticum aestivum, post-emergence, 336 h, read-out: percent postemergent control
How it was run: as §3

[21] = tested on: corn; test: Postemergent control of plant species; type: in vivo, Zea mays; conditions: Zea mays, post-emergence, 336 h, read-out: percent postemergent control
How it was run: as §3

[22] = tested on: rice; test: Postemergent control of plant species; type: in vivo, Oryza sativa; conditions: Oryza sativa, post-emergence, 336 h, read-out: percent postemergent control
How it was run: as §3

[23] = tested on: yellow nutsedge; test: Postemergent control of plant species; type: in vivo, Cyperus esculentus; conditions: Cyperus, post-emergence, 336 h, read-out: percent postemergent control
How it was run: as §3

[24] = tested on: crabgrass; test: Postemergent control of plant species; type: in vivo, Digitaria spp.; conditions: Digitaria sanguinalis, post-emergence, 336 h, read-out: percent postemergent control
How it was run: as §3

[25] = tested on: rape; test: Postemergent control of plant species; type: in vivo, Brassica napus; conditions: Brassica napus, post-emergence, 336 h, read-out: percent postemergent control
How it was run: as §3

[26] = tested on: jimsonweed; test: Postemergent control of plant species; type: in vivo, Datura stramonium; conditions: Datura stramonium, post-emergence, 336 h, read-out: percent postemergent control
How it was run: as §3

[27] = tested on: sorghum; test: Postemergent control of plant species; type: in vivo, Sorghum vulgare; conditions: Sorghum, post-emergence, 336 h, read-out: percent postemergent control
How it was run: as §3

[28] = tested on: cotton; test: Postemergent control of plant species; type: in vivo, Gossypium spp.; conditions: Gossypium hirsutum, post-emergence, 336 h, read-out: percent postemergent control
How it was run: as §3

[29] = tested on: annual morning glory; test: Postemergent control of plant species; type: in vivo, Ipomoea spp.; conditions: Ipomoea, post-emergence, 336 h, read-out: percent postemergent control
How it was run: as §3

[30] = tested on: sugar beet; test: Postemergent control of plant species; type: in vivo, Beta saccharifera; conditions: Beta vulgaris, post-emergence, 336 h, read-out: percent postemergent control
How it was run: as §3

[31] = tested on: pigweed; test: Postemergent control of plant species; type: in vivo, Amaranthus spp.; conditions: Amaranthus retroflexus, post-emergence, 336 h, read-out: percent postemergent control
How it was run: as §3

[32] = tested on: soybean; test: Postemergent control of plant species; type: in vivo, Glycine max.; conditions: Glycine max, post-emergence, 336 h, read-out: percent postemergent control
How it was run: as §3

[33] = tested on: barnyardgrass; test: Postemergent control of plant species; type: in vivo, Echinochloa crusgalli; conditions: Echinochloa crus-galli, post-emergence, 336 h, read-out: percent postemergent control
How it was run: as §3

[34] = tested on: velvetleaf; test: Postemergent control of plant species; type: in vivo, Abutilon theophrasti; conditions: Abutilon theophrasti, post-emergence, 336 h, read-out: percent postemergent control
How it was run: as §3

[35] = tested on: wild oats; test: Postemergent control of plant species; type: in vivo, Avena fatua; conditions: Avena fatua, post-emergence, 336 h, read-out: percent postemergent control
How it was run: as §3

[36] = tested on: annual sugar beet variety (SLC03); test: Plant growth regulator activity, preemergence; type: in vivo; conditions: Beta vulgaris, pre-emergence; 6-7 weeks; read-out: Bolting Inhibition (preemergence), concentration with observed effect
Source text: as §2
Preemergence tests are conducted by spraying formulated chemical on seeds placed on potting soil. The sprayed seeds are then covered with 1/4 inch of potting soil and the pots are watered. Bolting is evaluated 6-7 weeks after the initiation of the test. At this time untreated plants have a vigorous bolting stem with visible flowers.

[37] = tested on: cocklebur; test: Postemergent control of plant species; type: in vivo, Xanthium spp.; conditions: Xanthium strumarium, post-emergence, 336 h, read-out: percent postemergent control
How it was run: as §3

| SMILES | minimal effective concentration [6] [µg/mL] | pest or weed control at 500 ppm [18] [%] | % NH4-N Remaining After 2 Weeks Incubation ([1]; 0.06 ppm) [%] | % NH4-N Remaining After 2 Weeks Incubation ([1]; 0.25 ppm) [%] | % NH4-N Remaining After 2 Weeks Incubation ([1]; 1 ppm) [%] | % NH4-N Remaining After 2 Weeks Incubation ([1]; 4 ppm) [%] | pest or weed control at 500 ppm [19] [%] | plant injury at 500 ppm [20] [%] | plant injury at 500 ppm [21] [%] | plant injury at 500 ppm [22] [%] | observed effect (postemergence) [6] | pest or weed control at 500 ppm [23] [%] | pest or weed control at 500 ppm [24] [%] | plant injury at 500 ppm [25] [%] | pest or weed control at 500 ppm [26] [%] | plant injury at 500 ppm [27] [%] | plant injury at 500 ppm [28] [%] | pest or weed control at 500 ppm [29] [%] | plant injury at 500 ppm [30] [%] | pest or weed control at 500 ppm [31] [%] | further results |
| --- | --- | --- | --- | --- | --- | --- | --- | --- | --- | --- | --- | --- | --- | --- | --- | --- | --- | --- | --- | --- | --- |
| CC(C)c1ccn2nc(S(=O)(=O)Nc3c(Cl)cccc3Cl)nc2n1 [Compound 204] | 400 |  |  |  |  |  |  |  |  |  |  |  |  |  |  |  |  |  |  |  | % NH4-N Remaining After 2 Weeks Incubation ([1]; 0.6 ppm): 0%; % NH4-N Remaining After 2 Weeks Incubation ([1]; 1.25 ppm): 0%; % NH4-N Remaining After 2 Weeks Incubation ([1]; 2.5 ppm): 34%; % NH4-N Remaining After 2 Weeks Incubation ([1]; 5 ppm): 56%; % NH4-N Remaining After 2 Weeks Incubation ([1]; 10 ppm): 66%; pest or weed control at 280.212 g/ha [2]: 0%; pest or weed control at 280.212 g/ha [3]: 0%; plant injury at 280.212 g/ha [4]: 0%; plant injury at 280.212 g/ha [5]: 80%; pest or weed control at 280.212 g/ha [7]: 0%; pest or weed control at 280.212 g/ha [8]: 0%; plant injury at 280.212 g/ha [9]: 60%; plant injury at 280.212 g/ha [10]: 40%; pest or weed control at 280.212 g/ha [11]: 0%; plant injury at 280.212 g/ha [12]: 90%; plant injury at 280.212 g/ha [13]: 0%; plant injury at 280.212 g/ha [14]: 0%; pest or weed control at 280.212 g/ha [15]: 0%; pest or weed control at 280.212 g/ha [16]: 0%; plant injury at 280.212 g/ha [17]: 40% |
| COC(=O)c1cccc(C)c1N(Cc1ccccc1)S(=O)(=O)c1nc2nc(C)cc(C)n2n1 [Compound 267] | 400 | 75 | 0 | 0 | 0 | 11 | 70 | 0 | 0 | 40 | stunting | 40 | 90 | 80 | 80 | 65 | 0 | 90 | 80 | 60 | plant injury at 500 ppm [32]: 45%; pest or weed control at 500 ppm [33]: 35%; pest or weed control at 500 ppm [34]: 95%; pest or weed control at 500 ppm [35]: 0% |
| Cc1ccccc1NS(=O)(=O)c1nc2ncc(Cl)cn2n1 [Compound 129] | 400 |  |  |  |  |  |  |  |  |  |  |  |  |  |  |  |  |  |  |  | minimal effective concentration [36]: 400 µg/mL |
| Cc1cccc(Cl)c1NS(=O)(=O)c1nc2ncc(Cl)cn2n1 [Compound 119] | 400 | 80 | 23 | 33 | 69 | 88 | 0 | 0 | 30 | 0 | stunting | 40 | 0 | 100 | 90 | 0 | 0 | 30 | 50 | 0 | plant injury at 500 ppm [32]: 0%; pest or weed control at 500 ppm [37]: 70%; pest or weed control at 500 ppm [33]: 0%; pest or weed control at 500 ppm [34]: 70%; pest or weed control at 500 ppm [35]: 0% |
